Where “and” joins values, the source holds several entries; their conditions need not be identical. Identical values can stand only once. Like-named read-outs stand apart in the source and are kept apart here.
Legend:
ENaC channels = tested on: ENaC channels; parameters: method as in Canessa et al., 1994; conditions: ref Canessa et al., 1994; cited from earlier work
[1] = tested on: endogenous pH-gated responses in HEK cells; parameters: method as in Gunthorpe et al. (2001); conditions: manual patch clamp, ref Gunthorpe et al. (2001), read-out: affinity for inhibition of endogenous pH-gated responses; cited from earlier work
[2] = tested on: endogenous proton-activated currents in HEK cells; test: cells; type: cell-based, human; conditions: for IC50: pH 6.5 activation, QPatch 48, read-out: mean IC50
Protocol: CHO hASIC1a cells were cultured according to vendor instructions (B-SYS GmbH) and HEK cells using standard in-house methods. Both cell lines were harvested using optimized protocols and re-suspended in serum-free media (Gibco CHO-S-SFM from Thermo Fisher Scientific for CHO cells, and Ex-Cell 302 from Merck Sigma-Aldrich for HEK cells) to obtain a suspension of cells with smooth membranes and little debris, before transfer to the automated cell hotel consisting of a 60 ml plastic container (Sophion SB2050) and a magnetic stir bar to prevent cell clumping. An aliquot of cells is then aspirated into a 1 ml microcentrifuge tube and spun down (typically 150 g for 2.5 min) and the supernatant discarded before a user-defined volume of external solution is added by the robot and the cells re-suspended to achieve the desired final cell suspension density before application to primed QPlates. Cell capture, sealing and whole-cell access was achieved using optimized QPatch protocols before currents were recorded using a holding potential of −60 mV. […] Cells were washed three times with external pH 7.3 solution (5 μl) between applications of activating acidic solution to establish a stable ASIC1a current baseline. […] Each concentration of reference compound was applied to each cell before (i.e., during each pH 7.3 application period) and during each pH stimulus (IC50 mode). Thus, each concentration of test compound was pre-incubated with cells for at least 2 min before, and then during each acidic solution challenge, before wash-off in a neutral pH 7.3 solution that contained the next concentration of the same compound. Cells were allowed at least 2 min between applications of acidic solution to enable ASIC1a receptors to recover from desensitization.
Concentration-response xC50 curves from Patchliner and QPatch 48 experiments were calculated by plotting %inhibition (antagonists) or activation (pH) data against concentration in Prism software (GraphPad), using the variable sigmoidal dose-response function to fit the Hill equation with theoretical minimum block of 0% and maximum block of 100% and a free constant for Hill slope. Inward current amplitudes were compared to the response to a control pH application (typically pH 6.5) prior to antagonist application or excitation by solutions of different pH to enable calculation of %inhibition or %activation for each cell.
To quickly confirm a previous publication that HEK cells express endogenous ASIC1a receptor channels and assess the suitability of this cell system for drug discovery screening on APC platforms, we utilized the medium throughput QPatch 48 device. The QPatch uses 48 well microfluidic planar borosilicate chips and coated titanium pipette tips to make whole-cell recordings and sequentially apply small liquid volumes to enable rapid activation followed by slower deactivation (wash-off) of ligand-gated ionotropic responses. HEK cells were voltage-clamped at −60 mV and maintained in external solution at pH 7.4 to avoid steady-state desensitization of ASIC1 receptor channels. Cells were stimulated by external solutions with pH values ranging between 7.0 and 5.5 that evoked rapidly activating inward currents, followed by wash-off in pH 7.4 solution.

hASIC1a [3] = target: T1, hASIC1a (Homo sapiens, UniProt P78348); test: Patchliner APC, CHO ASIC1a currents, stacked tip application, voltage clamp; type: cell-based; parameters: host or cells: CHO; conditions: cumulative application, pH 6.5, stacked tip, single hole
T1 sequence (P78348 1-528): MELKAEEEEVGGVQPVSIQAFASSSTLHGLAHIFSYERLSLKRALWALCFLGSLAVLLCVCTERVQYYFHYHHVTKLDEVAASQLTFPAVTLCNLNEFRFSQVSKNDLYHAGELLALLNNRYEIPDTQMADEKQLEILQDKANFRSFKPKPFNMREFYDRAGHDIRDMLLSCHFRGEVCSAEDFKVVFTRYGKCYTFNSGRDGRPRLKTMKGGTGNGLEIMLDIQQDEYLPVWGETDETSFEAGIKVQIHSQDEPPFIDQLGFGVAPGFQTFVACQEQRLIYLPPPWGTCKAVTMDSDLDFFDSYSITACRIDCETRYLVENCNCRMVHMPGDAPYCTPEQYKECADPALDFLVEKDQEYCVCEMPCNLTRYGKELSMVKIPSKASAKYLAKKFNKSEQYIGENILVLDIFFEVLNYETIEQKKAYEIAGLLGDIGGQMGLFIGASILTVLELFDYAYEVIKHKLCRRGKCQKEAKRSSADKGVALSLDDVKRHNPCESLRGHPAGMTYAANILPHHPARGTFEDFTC
Protocol: CHO cells were cultured according to vendor instructions (B-SYS GmbH) and harvested using optimized protocols before transfer of the cell suspension to the automated cell hotel on the Patchliner where cells are stored at RT (∼20°C) in a small Teflon vessel and repetitively aspirated every 30 s using a 1 ml plastic pipette tip to prevent aggregation. The cell hotel parameters can be adjusted (interval, speed and volume of aspiration) depending on the cell type to maintain viability for 2–3 h. Cell sealing was conducted in the presence of elevated divalent cations and lowered Na^+, which were washed off after whole-cell access was achieved and replaced with external solution while cells were voltage clamped at a holding potential of −60 mV. […]
Concentration-response xC50 curves from Patchliner and QPatch 48 experiments were calculated by plotting %inhibition (antagonists) or activation (pH) data against concentration in Prism software (GraphPad), using the variable sigmoidal dose-response function to fit the Hill equation with theoretical minimum block of 0% and maximum block of 100% and a free constant for Hill slope. […]

hASIC1a [4] = target: T1, hASIC1a; parameters: host or cells: CHO; conditions: ref Leng et al., 2016; read-out: Literature IC50; cited from earlier work

Row | Compound | sensitivity of ENaC channels to inhibition (ENaC channels) [nM] | IC50 [1] [nM] | IC50 ([2]; HEK cells) | IC50 ([2]; Homo sapiens, HEK293, pH 6.5, HEK cells) [nM] | inhibition at 0.3 µM ([2]; Homo sapiens, HEK293, read-out: inhibition of pH-evoked current (some cells)) [%] | IC50 (hASIC1a [3]) [nM] | IC50 (hASIC1a [4]) [nM]
1 | N=C(N)NC(=O)c1nc(Cl)c(N)nc1N [Amiloride] | 100 | 2200 | 2000 to 3000 nM and 2800 nM | 2820 | ~25 |  | 
2 | NC(=NCc1ccccc1)NC(=O)c1nc(Cl)c(N)nc1N [Benzamil] |  |  |  |  |  | 3650 | 3500

Reference: paper PMC9629855, “Development of ASIC1a ligand-gated ion channel drug screening assays across multiple automated patch clamp platforms” (Frontiers in Molecular Neuroscience, 2022)
